Laboratory results reported in patent US6803046B2, “Sincalide formulations” (Bracco International B.V., priority 2002, dated 2004).

Key:
[1] = Effect of amino acids on sincalide recovery and related impurities; format: physicochemical; settings: for improvement in sincalide recovery vs control without lysine: lyophilized formulations
Description: Experiments were conducted to evaluate several amino acids as potential stabilizers of sincalide, including the non-polar (hydrophobic) methionine residue, aspartic acid and glutamic acid, the polar glycine and cysteine residues, and the basic lysine and arginine amino acids. […]
For comparison to the non-polar amino acid methionine as a potential processing stabilizer, polar amino acids such as glycine and cysteine were also evaluated. Formulations containing these amino acids were exposed to air in open vials and compared to product in closed vials. […] Table 23 presents the sincalide recoveries for experimental formulations containing variable concentrations of methionine, cysteine or glycine. […]

[2] = Effect of antioxidants on sincalide formulation stability (HPLC); settings: for % Sincalide / % Total Sincalide-Related Impurities: antioxidant 10 μg/mL; for effect of antioxidant on sincalide stability (in words): antioxidant 10 μg/mL in reconstituted sincalide formulation, over 15 hours
Description: An experiment was performed to evaluate the addition of antioxidants as stabilizing agents to prevent sincalide oxidation in formulations of sincalide (formulations for Example 4 contained 85 mg/mL mannitol, 0.005 mg/mL TWEEN® 20, 2.75 mg/mL KH2PO4, 1.0 mg/mL DTPA, 2.0 mg/mL methionine, 7.5 mg/mL lysine, 15 mg/mL arginine, 0.0025 mg/mL sincalide (Bulk formulation), except placebos which contained no sincalide.) The formation of sincalide methionine (Met 3 or Met 6) monosulfoxides, desulfated sincalide and unknown degradants was investigated. The effectiveness of sodium metabisulfite, ascorbic acid, cysteine, glutathione, sodium sulfate, benzalkonium chloride, and benzethonium chloride in inhibiting the degradation of sincalide in terms of their effect on sincalide recovery and sincalide-related impurities, was evaluated by HPLC.
The effect of various antioxidants on the stabilization of sincalide was evaluated on open and sealed sincalide formulations over 15 hours. The antioxidants were separately added at a concentration of 10 μg/mL to water-reconstituted lyophilized sincalide formulations containing all formulation ingredients except antioxidant. Spiked and unspiked solutions were pooled, subdivided, and either exposed to or protected from air over 15 hours. The sincalide and total sincalide-related impurities were monitored by reversed-phase HPLC with gradient elution and UV detection at 215 nm to compare the effectiveness of the antioxidants.
To optimize the level of sodium metabisulfite in the formulation, lyophilized sincalide formulations were prepared containing four levels of sodium metabisulfite (0, 10, 30, and 60 μg/vial), as summarized in Table 13. Samples at each concentration were maintained under unstressed and stressed (65 ° C., 64 hours) storage conditions, and were subsequently assayed by HPLC. The “% sincalide” was determined, and the “% (Met 6) monosulfoxide” (tR≈19.7 min.) was monitored as an indication of sincalide oxidation.
Another experiment was conducted under longer-term accelerated storage conditions utilizing a sincalide formulation with the optimized concentration (40 μg/vial) of sodium metabisulfite to confirm the protective effect on the degradation of sincalide. Sincalide lyophilized formulations with and without the antioxidant from the same batch were heat-stressed at 40° C. and 60° C. for 6 weeks. Also, formulations without sincalide from the same batch were heat-stressed at 40° C. for 8 months.

[3] = Effect of surfactants on sincalide recovery (RP-HPLC); format: physicochemical; settings: for sincalide recoveries: formulations containing trace levels (2.5-7.5 μg/mL) of the surfactant
Description: During the preliminary developmental studies of a new formulation that consisted of bulking agent/tonicity adjuster, buffer, salt, chelator, and sincalide, it was observed by HPLC analysis that the recovery of the active pharmaceutical ingredient, sincalide, in the bulk solution was sensitive to standing open to air. […] Although to some extent, this sincalide decrease can be accounted for by an increase in the presence of sincalide mono- and disulfoxide degradants, these represent only a very minor percentage of the decreases noted. Thus the decrease in recovery is thought to be attributed to either adsorption/denaturing or air/liquid interface effects. To minimize sincalide degradation associated with surface adsorption, surfactants are added as formulation excipients in bulk and lyophilized formulations of sincalide.
Sincalide formulations consisting of a bulking agent/tonicity adjuster (D-mannitol), buffer (mono- and dibasic potassium phosphate), salt (sodium/potassium chloride) for tonicity, chelator (pentetic acid), and active ingredient (sincalide) were prepared using varying concentrations of the nonionic surfactant, polysorbate 80 (TWEEN® 80). Bulk solution and reconstituted lyophilized samples were either stoppered immediately or left unstoppered for 17 hours, and were assayed for sincalide recovery by reversed-phase gradient elution HPLC at 215 nm. […]
An additional experiment was performed to confirm the effect of the concentration of TWEEN® 20 in terms of sincalide recovery in both air exposed and sealed bulk formulation. Sincalide recovery, determined for bulk formulation (75.0 mg/mL D-mannitol, 6.0 mg/mL KCl, 3.25 mg/mL KH2PO4, 1.0 mg/mL DTPA, 0.0025 mg/mL sincalide) containing varying trace levels of TWEEN® 20 stored in open or closed vials using reversed-phase gradient elution HPLC, is shown in Table 10. […]

[4] = Table 23, bulk formulation, amino acid 2.0 mg/mL Bulk
[5] = Table 23, bulk formulation, amino acid 2.5 mg/mL Bulk
[6] = bulk formulation, L-Methionine 0.00 mg/mL Bulk
[7] = bulk formulation, L-Methionine 0.025 mg/mL Bulk
[8] = bulk formulation, L-Methionine 0.50 mg/mL Bulk
[9] = bulk formulation, L-Methionine 2.0 mg/mL Bulk

| Molecule | % Sincalide ([2]; Open, 1 h) [%] | % Total Sincalide-Related Impurities ([2]; Open, 1 h) [%] | % Sincalide ([2]; Open, 8 h) [%] | % Total Sincalide-Related Impurities ([2]; Open, 8 h) [%] | % Sincalide ([2]; Open, 15 h) [%] | % Total Sincalide-Related Impurities ([2]; Open, 15 h) [%] | % Sincalide ([2]; Sealed, 0 h) [%] | % Total Sincalide-Related Impurities ([2]; Sealed, 0 h) [%] | % Sincalide ([2]; Sealed, 7 h) [%] | % Total Sincalide-Related Impurities ([2]; Sealed, 7 h) [%] | % Sincalide ([2]; Sealed, 14 h) [%] | % Total Sincalide-Related Impurities ([2]; Sealed, 14 h) [%] | further results |
| --- | --- | --- | --- | --- | --- | --- | --- | --- | --- | --- | --- | --- | --- |
| NCCCCC(N)C(=O)O (racemic) [DL-Lysine] |  |  |  |  |  |  |  |  |  |  |  |  | improvement in sincalide recovery vs control without lysine ([1]; 3 weeks storage at 40° C.): 50%; improvement in sincalide recovery vs control without lysine ([1]; 5 weeks storage at 40° C.): 75% |
| O=C1O[C@H]([C@@H](O)CO)C(O)=C1O [Ascorbic Acid] | 98.0 | 2.00 | 98.0 | 2.01 | 97.8 | 2.16 | 98.1 | 1.95 | 98.0 | 2.05 | 97.8 | 2.25 |  |
| CC(C)(C)CC(C)(C)c1ccc(OCCOCC[N+](C)(C)Cc2ccccc2)cc1 [Benzethonium Chloride] | 92.1 | 7.93 | 88.0 | 12.0 | 92.6 | 7.36 | 97.9 | 2.13 | 98.0 | 1.98 | 98.0 | 1.96 | effect of antioxidant on sincalide stability (in words) [2]: significant destabilizing effect |
| N[C@@H](CS)C(=O)O [Cysteine] | 97.8 | 2.20 | 97.7 | 2.32 | 98.0 | 2.05 | 98.2 | 1.85 | 98.1 | 1.87 | 98.1 | 1.91 |  |
| N[C@@H](CCC(=O)N[C@@H](CS)C(=O)NCC(=O)O)C(=O)O [Glutathione] | 98.1 | 1.94 | 98.2 | 1.85 | 97.9 | 2.13 | 98.1 | 1.90 | 98.3 | 1.74 | 98.2 | 1.82 |  |
| N[C@@H](CS)C(=O)O [L-Cysteine] |  |  |  |  |  |  |  |  |  |  |  |  | Related impurities (%), Closed [1, 4]: 1.0%; Related impurities (%), Open [1, 4]: 31.0% |
| NCC(=O)O [L-Glycine] |  |  |  |  |  |  |  |  |  |  |  |  | Related impurities (%), Closed [1, 4]: 1.1%; Related impurities (%), Open [1, 4]: 51.1%; Related impurities (%), Closed [1, 5]: 1.6%; Related impurities (%), Open [1, 5]: 44.9% |
| CSCC[C@H](N)C(=O)O [L-Methionine] |  |  |  |  |  |  |  |  |  |  |  |  | Related impurities (%), Closed [1, 4]: 0.7%; Related impurities (%), Open [1, 4]: 6.4%; Related impurities (%), Closed [1, 5]: 0.7%; Related impurities (%), Open [1, 5]: 10.5%; Related impurities (%), Closed [1, 6]: 1.3%; Related impurities (%), Open [1, 6]: 52.7%; Related impurities (%), Closed [1, 7]: 1.0%; Related impurities (%), Open [1, 7]: 35.9%; Related impurities (%), Closed [1, 8]: 0.8%; Related impurities (%), Open [1, 8]: 19.3%; Related impurities (%), Closed [1, 9]: 0.7%; Related impurities (%), Open [1, 9]: 15.0% |
| O=S([O-])S(=O)(=O)[O-].[Na+].[Na+] [Sodium Metabisulfite] | 98.2 | 1.76 | 98.3 | 1.69 | 98.2 | 1.79 | 98.3 | 1.67 | 98.3 | 1.66 | 98.3 | 1.73 |  |
| O=S(=O)([O-])[O-].[Na+].[Na+] [Sodium Sulfate] | 98.3 | 1.70 | 98.2 | 1.78 | 98.1 | 1.92 | 98.2 | 1.76 | 98.1 | 1.90 | 98.2 | 1.81 | effect of antioxidant on sincalide stability (in words) [2]: essentially equivalent to the control formulation |
| Benzalkonium Chloride | 82.7 | 17.3 | 88.4 | 11.6 | 82.9 | 17.1 | 97.8 | 2.21 | 97.7 | 2.34 | 97.4 | 2.58 |  |
| polyoxyethylene sorbitan monolaurate [TWEEN ® 20] |  |  |  |  |  |  |  |  |  |  |  |  | foaming in the reconstituted product upon vigorous stirring ([3]; 2-mL filled vials, TWEEN 20 concentration of 5 μg/mL): slight foaming; sincalide recoveries [3]: 98-102% |
| polysorbate 80 [TWEEN ® 80] |  |  |  |  |  |  |  |  |  |  |  |  | sincalide recoveries [3]: 95-98% |
